Reference: US20240041023A1, “COMPOSITION AND METHOD OF PRESERVING VIABILITY OF CELL IN A LOW TEMPERATURE” (THE UNITED STATES OF AMERICA, AS REPRESENTED BY THE …, priority 2020, published 2024)
“Also recorded” adds a separate entry of the source.

How the values were obtained:
[1] = test system: rat corneal endothelial cells; assay: Cold preservation of rat cornea: endothelial cell mortality (PI positive cells) and immunofluorescence staining; assay type: cell-based; conditions: 6-month-old rat cornea
Method: After injection of 0.5 μL C6 solution (10 μM/μL in goat serum solvent) into the anterior chamber of the eye through the limbal stroma. After 90 minutes, the cornea was taken and cold stored in a corneal preservation solution. After cold storage for 3 weeks and 4 weeks, the cold storage results were evaluated by immunofluorescence staining.
The corneal preservation solution of this example is the novel corneal preservation solution prepared in Example 3, with 20 μM C6 and the protease inhibitor mixture Pi (as described in WO2019/040359A1) added, and the final concentrations of the components in the protease inhibitor mixture Pi in the cold preservation solution are respectively: pepstatin 1 μM; leupeptin 2 μM; bestatin 5 μM; […] 0.5 μM; aprotinin 0.08 μM; AEBSF 100 μM.
0.5 μL of Apigenin solution (concentration 4 μM/μL, in goat serum solvent) was injected into the anterior chamber through the limbal stroma, and 20 minutes later, the cornea was removed and stored in the novel preservation solution prepared in Example 3 (with 4 μM Apigenin and Pi previously added). After cold storage for 3 weeks and 4 weeks, the cold storage results were evaluated by immunofluorescence staining.

FOXO1 [2] = assay: FOXO1 nuclear entry in corneal endothelial cells after anterior chamber injection (immunofluorescence); assay type: in vivo, rat; conditions: 6-month-old rats
mice pancreatic islets = assay: Mouse pancreatic islets stored at 4° C. versus 1640 culture solution; assay type: cell-based; conditions: mice pancreatic islets stored at 4° C.; C6 and Apigenin added to the novel preservation solution (MM)
Method: In another example, mice pancreatic islets were extracted and stored at 4° C. in cold storage. The conventional 1640 culture solution which is commonly used is used as a control group.

FOXO1 [3] = assay: FOXO1-dependent survival pathway and FOXO1 nuclear entry in cold stored mouse islets; assay type: cell-based; conditions: mouse pancreatic islets; inhibitor added to HS solution
Method: (§1) N-EM and protease inhibitors are added into HS to make HS+.

mouse pancreatic islets = assay: Cold survival of mouse pancreatic islets in preservation solutions; assay type: cell-based; conditions: N-EM added into UW solution, 2-D08 or ginkgolic acid added into HS solution
Method: as §1

human islets = assay: Cold storage of human islets; assay type: cell-based; conditions: prolonged cold storage
[4] = after anterior chamber injection (C6 20 μM/μL, Apigenin 4 μM/μL, goat serum solvent), before cold stimulation
[5] = after anterior chamber injection and cold stimulation

CCCCCCCCCCCCC/C=C/[C@@H](O)[C@H](CO)NC(=O)CCCCC [C6, C6 ceramide]
corneal endothelial cell death, in words ([1]; cold preservation 3 weeks): reduction in the number of dead corneal endothelial cells | FOXO1 nucleus entry in corneal endothelial cells (FOXO1 [2]; [4]): activate FOXO1 nucleus entry | FOXO1 nucleus entry in corneal endothelial cells (FOXO1 [2]; [5]): nucleus entry signal was enhanced | islet cell death (mice pancreatic islets): further reduced the number of dead cells

O=c1cc(-c2ccc(O)c(O)c2O)oc2ccccc12 [2-D08]
cold-induced FOXO1 nuclear entry (FOXO1 [3]): repressed | islet cold survival / islet cell death (mouse pancreatic islets): islet cell death became severe

ginkgolic acid
cold-induced FOXO1 nuclear entry (FOXO1 [3]): repressed | islet cold survival / islet cell death (mouse pancreatic islets): islet cell death became severe

O=c1cc(-c2ccc(O)cc2)oc2cc(O)cc(O)c12 [Apigenin]
corneal endothelial cell death, in words ([1]; cold preservation 3 weeks): decreased mortality | corneal endothelial cell death, in words ([1]; cold storage 4 weeks): significantly reduced | corneal endothelium structure (hexagonal structure, F-actin, nuclei) ([1]; cold storage 4 weeks (28 days, 4° C.)): largely intact endothelium | FOXO1 nucleus entry in corneal endothelial cells (FOXO1 [2]; [4]): did not cause FOXO1 to enter nucleus | FOXO1 nucleus entry in corneal endothelial cells (FOXO1 [2]; [5]): activated FOXO1 to enter the nucleus | FOXO1 nucleus entry in corneal endothelial cells (FOXO1 [2]; after cold stimulation and rewarming): weak nuclear entering effect is still maintained | islet cell death (mice pancreatic islets): further reduced the number of dead cells

CCN1C(=O)C=CC1=O [N-Ethylmaleimide]
islet cold survival / islet cell death (mouse pancreatic islets): enables longer term cold storage; also recorded: islet cold survival is improved | outcome of cold storage of human islets (human islets): enables longer term cold storage
